In patent US8785457B2 (Cellzome Limited, priority 2009, dated 2014):
Like-named read-outs stand apart in the source and are kept apart here.

Legend:
PI3 Kgamma (PI3 Kg) = target: T1, PI3 Kgamma (PI3 Kg) (Homo sapiens, UniProt P48736); experiment: kinobeads assay, PI3Kgamma; assay type: binding; conditions: kinobeads assay, Table 6; read-out: Inhibition values (IC50) PI3Kg
T1 construct: endogenous in cells; host or cells: cell lysate
Method: (§1) The kinobeads assay was performed as a competitive binding assay in which test compounds were added directly into a cell lysate. Test compounds (at various concentrations) and the affinity matrix (beads with immobilized phenylmorpholin-chromen ligand) were added to cell lysate aliquots and allowed to bind to the proteins contained in the lysate sample. After the incubation time the beads with captured proteins were separated from the lysate. Bound proteins were then eluted and the presence of kinases was detected and quantified using a multiplexed immunodetection format. Dose response curves for individual kinases were generated and IC50 values calculated.
(§2) The effect of the compounds on the kinases PI3Kalpha (PI3Ka), PI3 Kbeta (PI3 Kb) and PI3 Kgamma (PI3 Kg) were tested in the kinobeads assay as described (WO-A 2009/098021).

PI3K delta (PI3 Kd) = target: T2, PI3K delta (PI3 Kd) (Homo sapiens, UniProt O00329); experiment: kinobeads assay, PI3K delta; assay type: binding; conditions: kinobeads assay, read-out: Inhibition values (IC50) PI3Kd
T2 construct: endogenous in cells; host or cells: Jurkat, clone E6-1 (ATCC TIB-152) cell lysate
Method: (§3) The compounds of the present invention as described were tested in the mTOR kinobeads assay as described below. Briefly, test compounds (at various concentrations) and the affinity matrix with the immobilized phenylmorpholin-chromen ligand (8-(4-aminomethyl-phenyl)-2-morpholin-4-yl-chromen-4-one) were added to cell lysate aliquots and allowed to bind to the proteins in the lysate sample. After the incubation time the beads with captured proteins were separated from the lysate. Bound proteins were then eluted and the presence of mTOR, PI3K delta (PI3 Kd) and DNA-dependent protein kinase (DNA-PK) was detected and quantified using a specific antibody in a dot blot procedure and the Odyssey infrared detection system. Kinobeads assays for PI3K (WO-A 2008/015013) and for kinase selectivity profiling (WO 2006/134056) have been previously described.
as §1
(§4) The affinity matrix (beads with immobilized phenylmorpholin-chromen ligand) was washed two times with 15 ml of 1×DP buffer containing 0.2% NP40 (IGEPAL® CA-630, Sigma, #13021) and then resupended in 5.5 ml of 1×DP buffer containing 0.2% NP40 (10% beads slurry).
(§5) 5×DP buffer: 250 mM Tris-HCl pH 7.4, 25% Glycerol, 7.5 mM MgCl2, 750 mM NaCl, 5 mM Na3VO4, filter the 5×-lysis buffer through 0.22 μm filter and store in aliquots at −80° C. The 5×DP buffer is diluted to 1×DP buffer containing 1 mM DTT and 25 mM NaF.
(§6) Stock solutions of test compounds were prepared in DMSO. In a 96 well plate 30 μl solution of diluted test compounds at 5 mM in DMSO were prepared. Starting with this solution a 1:3 dilution series (9 steps) was prepared. For control experiments (no test compound) a buffer containing 2% DMSO was used. Compound CZC00018052 served as a positive control (PI-103; Calbiochem catalogue number 528100).
(§7) Jurkat cells (ATCC catalogue number TIB-152 Jurkat, clone E6-1) were grown in 1 liter Spinner flasks (Integra Biosciences, #182101) in suspension in RPMI 1640 medium (Invitrogen, #21875-034) supplemented with 10% Fetal Bovine Serum (Invitrogen) at a density between 0.15×10^6 and 1.2×10^6 cells/ml. Cells were harvested by centrifugation, washed once with 1×PBS buffer (Invitrogen, #14190-094) and cell pellets were frozen in liquid nitrogen and subsequently stored at −80° C.
(§8) Jurkat cells were homogenized in a Potter S homogenizer in lysis buffer: 50 mM Tris-HCl, 0.8% NP40, 5% glycerol, 150 mM NaCl, 1.5 mM MgCl2, 25 mM NaF, 1 mM sodium vanadate, 1 mM DTT, pH 7.5. One complete EDTA-free tablet (protease inhibitor cocktail, Roche Diagnostics, 1873580) per 25 ml buffer was added. The material was dounced 10 times using a mechanized POTTER S, transferred to 50 ml falcon tubes, incubated for 30 minutes on ice and spun down for 10 min at 20,000 g at 4° C. (10,000 rpm in Sorvall SLA600, precooled). The supernatant was transferred to an ultracentrifuge (UZ)-polycarbonate tube (Beckmann, 355654) and spun for 1 hour at 100.000 g at 4° C. (33.500 rpm in Ti50.2, precooled). The supernatant was transferred again to a fresh 50 ml falcon tube, the protein concentration was determined by a Bradford assay (BioRad) and samples containing 50 mg of protein per aliquot were prepared. The samples were immediately used for experiments or frozen in liquid nitrogen and stored frozen at −80° C. […]

mTOR = target: T3, mTOR (Homo sapiens, UniProt P42345); experiment: mTOR kinobeads assay (competitive binding in Jurkat cell lysate, immunodetection); conditions: kinobeads assay
T3 construct: endogenous in cells; host or cells: Jurkat, clone E6-1 (ATCC TIB-152) cell lysate
Method: The compounds of the present invention as described were tested in the mTOR kinobeads assay as described below. […] After the incubation time the beads with captured proteins were separated from the lysate. Bound proteins were then eluted and the presence of mTOR, PI3K delta (PI3 Kd) and DNA-dependent protein kinase (DNA-PK) was detected and quantified using a specific antibody in a dot blot procedure and the Odyssey infrared detection system.
as §1, §5
as §6, with “used.” for “used. Compound CZC00018052 served as a positive control (PI-103; Calbiochem catalogue number 528100).”
Jurkat cells were homogenized in a Potter S homogenizer in lysis buffer: 50 mM Tris-HCl, 0.8% NP40, 5% glycerol, 150 mM NaCl, 1.5 mM MgCl2, 25 mM NaF, 1 mM sodium vanadate, 1 mM DTT, pH 7.5. […] The material was dounced 10 times using a mechanized POTTER S, transferred to 50 ml falcon tubes, incubated for 30 minutes on ice and spun down for 10 min at 20,000 g at 4° C. (10,000 rpm in Sorvall SLA600, precooled). […] (33.500 rpm in Ti50.2, precooled). The supernatant was transferred again to a fresh 50 ml falcon tube, the protein concentration was determined by a Bradford assay (BioRad) and samples containing 50 mg of protein per aliquot were prepared. The samples were immediately used for experiments or frozen in liquid nitrogen and stored frozen at −80° C.
Jurkat cell lysate (approximately 50 mg protein per plate) was thawed in a water bath at room temperature and then kept on ice. […] The diluted cell lysate was stored on ice.
Plates were sealed and incubated for two hours in a cold room on a Thermoxer with shaking (750 rpm). Afterwards the plate was washed twice with 230 μl washing buffer (1×DP 0.4% NP40). […] The eluate was frozen quickly at −80° C. and stored at −20° C.
The kinases in the eluates were detected and quantified by spotting on Nitrocellulose membranes and using a first antibody directed against the kinase of interest and a fluorescently labeled secondary antibody (anti-mouse or anti-rabbit IRDye™ antibodies from Rockland).
Afterwards the membrane was washed three times for 10 minutes with PBS buffer containing 0.1% Tween 20 at room temperature. […] Afterwards the membrane was washed three times for 10 minutes each with 1×PBS buffer containing 0.1% Tween 20 at room temperature. Then the membrane was rinsed once with PBS buffer to remove residual Tween 20. The membrane was kept in PBS buffer at 4° C. and then scanned with the Odyssey instrument. Fluorescence signals were recorded and analysed according to the instructions of the manufacturer.

PI3Kalpha (PI3Ka) = target: T4, PI3Kalpha (PI3Ka) (Homo sapiens, UniProt P42336); experiment: kinobeads assay, PI3Kalpha; assay type: binding; conditions: kinobeads assay, Table 6; for IC50: read-out: Inhibition values (IC50) PI3Ka
T4 construct: endogenous in cells; host or cells: cell lysate
Method: as §1, §2

PI3 Kbeta (PI3 Kb) = target: T5, PI3 Kbeta (PI3 Kb) (Homo sapiens, UniProt P42338); experiment: kinobeads assay, PI3Kbeta; assay type: binding; conditions: kinobeads assay, Table 6; read-out: Inhibition values (IC50) PI3Kb
T5 construct: endogenous in cells; host or cells: cell lysate
Method: as §1, §2

[1] = target: T6, DNA-dependent protein kinase (DNA-PK) (Homo sapiens, UniProt P78527); experiment: kinobeads assay, DNA-PK; assay type: binding; conditions: kinobeads assay
T6 construct: endogenous in cells; host or cells: Jurkat, clone E6-1 (ATCC TIB-152) cell lysate
Method: as §3, §1, §4, §5, §6, §7, §8

[2] = Table 4, read-out: Inhibition values (IC50) mTor
[3] = Table 6, read-out: Inhibition values (IC50) mTOR
[4] = Table 4, read-out: Inhibition values (IC50) DNA-PK
[5] = Table 6, read-out: Inhibition values (IC50) DNAPK

T5 sequence (P42338 whole entry): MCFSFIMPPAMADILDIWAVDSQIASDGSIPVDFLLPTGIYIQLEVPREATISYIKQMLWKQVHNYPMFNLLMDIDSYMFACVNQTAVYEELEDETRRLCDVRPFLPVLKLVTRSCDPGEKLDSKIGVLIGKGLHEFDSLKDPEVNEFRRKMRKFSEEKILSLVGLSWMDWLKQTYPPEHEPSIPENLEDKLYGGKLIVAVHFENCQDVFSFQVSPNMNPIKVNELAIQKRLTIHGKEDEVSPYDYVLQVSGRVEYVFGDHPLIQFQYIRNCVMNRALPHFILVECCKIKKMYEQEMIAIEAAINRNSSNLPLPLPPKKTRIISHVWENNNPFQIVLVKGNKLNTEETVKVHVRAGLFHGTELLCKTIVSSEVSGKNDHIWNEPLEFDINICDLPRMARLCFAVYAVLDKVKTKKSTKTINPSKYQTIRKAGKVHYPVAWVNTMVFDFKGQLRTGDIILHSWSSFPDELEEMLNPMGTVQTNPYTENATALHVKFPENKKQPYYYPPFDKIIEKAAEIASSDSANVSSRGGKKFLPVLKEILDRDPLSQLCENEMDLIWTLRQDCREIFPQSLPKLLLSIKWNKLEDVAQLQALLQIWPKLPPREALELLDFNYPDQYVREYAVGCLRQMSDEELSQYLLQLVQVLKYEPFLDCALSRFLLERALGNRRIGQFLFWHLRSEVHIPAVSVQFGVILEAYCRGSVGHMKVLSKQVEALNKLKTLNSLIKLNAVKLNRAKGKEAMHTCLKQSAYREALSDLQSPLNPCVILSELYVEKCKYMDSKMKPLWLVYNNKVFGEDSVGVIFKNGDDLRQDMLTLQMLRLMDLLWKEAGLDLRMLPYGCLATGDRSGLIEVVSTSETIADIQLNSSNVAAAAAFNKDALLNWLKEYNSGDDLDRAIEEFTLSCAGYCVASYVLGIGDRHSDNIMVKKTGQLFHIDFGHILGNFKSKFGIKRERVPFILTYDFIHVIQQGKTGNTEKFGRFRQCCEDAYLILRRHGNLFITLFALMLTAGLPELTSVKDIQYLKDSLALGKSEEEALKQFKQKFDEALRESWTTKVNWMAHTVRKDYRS
T5 sequence (P27986 whole entry partner): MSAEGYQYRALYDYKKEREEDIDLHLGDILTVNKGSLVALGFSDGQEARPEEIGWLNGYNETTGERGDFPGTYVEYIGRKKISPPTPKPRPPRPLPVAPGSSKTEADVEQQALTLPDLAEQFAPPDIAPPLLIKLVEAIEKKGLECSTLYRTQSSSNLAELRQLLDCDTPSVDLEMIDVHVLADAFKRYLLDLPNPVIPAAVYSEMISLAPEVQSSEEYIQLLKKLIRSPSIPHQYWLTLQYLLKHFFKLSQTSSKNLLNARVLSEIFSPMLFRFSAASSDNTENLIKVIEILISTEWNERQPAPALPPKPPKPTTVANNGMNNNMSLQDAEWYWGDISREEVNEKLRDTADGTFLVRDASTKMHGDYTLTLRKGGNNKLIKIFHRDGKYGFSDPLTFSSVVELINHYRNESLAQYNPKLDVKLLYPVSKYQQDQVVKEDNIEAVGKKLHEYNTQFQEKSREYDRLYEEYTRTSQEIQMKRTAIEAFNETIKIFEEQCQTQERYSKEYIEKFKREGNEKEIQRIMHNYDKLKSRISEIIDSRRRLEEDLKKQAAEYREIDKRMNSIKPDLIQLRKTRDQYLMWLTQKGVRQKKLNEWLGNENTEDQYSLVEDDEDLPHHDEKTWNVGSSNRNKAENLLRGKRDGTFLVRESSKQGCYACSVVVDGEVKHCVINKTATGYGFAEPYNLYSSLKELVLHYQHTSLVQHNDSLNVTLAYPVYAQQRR
T1 sequence (P48736 whole entry): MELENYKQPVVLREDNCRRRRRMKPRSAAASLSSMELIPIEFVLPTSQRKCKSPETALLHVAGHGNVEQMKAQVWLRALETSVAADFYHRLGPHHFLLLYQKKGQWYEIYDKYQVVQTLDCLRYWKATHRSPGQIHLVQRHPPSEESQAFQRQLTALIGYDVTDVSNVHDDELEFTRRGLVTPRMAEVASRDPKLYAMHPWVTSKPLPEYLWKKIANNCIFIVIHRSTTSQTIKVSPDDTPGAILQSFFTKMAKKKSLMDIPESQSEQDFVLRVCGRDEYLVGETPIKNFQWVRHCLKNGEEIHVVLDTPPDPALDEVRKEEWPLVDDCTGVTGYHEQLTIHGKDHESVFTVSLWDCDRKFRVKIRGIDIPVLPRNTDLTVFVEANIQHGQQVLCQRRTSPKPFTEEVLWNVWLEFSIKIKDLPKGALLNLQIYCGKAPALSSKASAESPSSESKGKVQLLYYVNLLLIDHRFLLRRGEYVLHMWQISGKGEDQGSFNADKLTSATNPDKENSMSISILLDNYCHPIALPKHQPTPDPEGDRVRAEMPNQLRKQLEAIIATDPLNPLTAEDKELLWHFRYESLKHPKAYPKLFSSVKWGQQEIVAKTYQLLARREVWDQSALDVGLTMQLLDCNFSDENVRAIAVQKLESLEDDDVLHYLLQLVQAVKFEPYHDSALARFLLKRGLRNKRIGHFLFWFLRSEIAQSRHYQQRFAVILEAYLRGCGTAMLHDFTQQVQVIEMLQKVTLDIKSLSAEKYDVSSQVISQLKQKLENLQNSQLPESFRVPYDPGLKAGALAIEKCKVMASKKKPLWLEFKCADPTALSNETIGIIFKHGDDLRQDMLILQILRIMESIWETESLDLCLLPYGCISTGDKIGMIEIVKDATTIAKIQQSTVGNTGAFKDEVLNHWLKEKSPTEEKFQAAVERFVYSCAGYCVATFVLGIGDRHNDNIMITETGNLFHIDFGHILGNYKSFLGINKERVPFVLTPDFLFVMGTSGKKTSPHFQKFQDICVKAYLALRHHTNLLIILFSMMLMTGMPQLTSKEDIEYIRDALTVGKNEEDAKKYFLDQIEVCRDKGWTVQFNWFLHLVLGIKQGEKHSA
T4 sequence (P42336 whole entry): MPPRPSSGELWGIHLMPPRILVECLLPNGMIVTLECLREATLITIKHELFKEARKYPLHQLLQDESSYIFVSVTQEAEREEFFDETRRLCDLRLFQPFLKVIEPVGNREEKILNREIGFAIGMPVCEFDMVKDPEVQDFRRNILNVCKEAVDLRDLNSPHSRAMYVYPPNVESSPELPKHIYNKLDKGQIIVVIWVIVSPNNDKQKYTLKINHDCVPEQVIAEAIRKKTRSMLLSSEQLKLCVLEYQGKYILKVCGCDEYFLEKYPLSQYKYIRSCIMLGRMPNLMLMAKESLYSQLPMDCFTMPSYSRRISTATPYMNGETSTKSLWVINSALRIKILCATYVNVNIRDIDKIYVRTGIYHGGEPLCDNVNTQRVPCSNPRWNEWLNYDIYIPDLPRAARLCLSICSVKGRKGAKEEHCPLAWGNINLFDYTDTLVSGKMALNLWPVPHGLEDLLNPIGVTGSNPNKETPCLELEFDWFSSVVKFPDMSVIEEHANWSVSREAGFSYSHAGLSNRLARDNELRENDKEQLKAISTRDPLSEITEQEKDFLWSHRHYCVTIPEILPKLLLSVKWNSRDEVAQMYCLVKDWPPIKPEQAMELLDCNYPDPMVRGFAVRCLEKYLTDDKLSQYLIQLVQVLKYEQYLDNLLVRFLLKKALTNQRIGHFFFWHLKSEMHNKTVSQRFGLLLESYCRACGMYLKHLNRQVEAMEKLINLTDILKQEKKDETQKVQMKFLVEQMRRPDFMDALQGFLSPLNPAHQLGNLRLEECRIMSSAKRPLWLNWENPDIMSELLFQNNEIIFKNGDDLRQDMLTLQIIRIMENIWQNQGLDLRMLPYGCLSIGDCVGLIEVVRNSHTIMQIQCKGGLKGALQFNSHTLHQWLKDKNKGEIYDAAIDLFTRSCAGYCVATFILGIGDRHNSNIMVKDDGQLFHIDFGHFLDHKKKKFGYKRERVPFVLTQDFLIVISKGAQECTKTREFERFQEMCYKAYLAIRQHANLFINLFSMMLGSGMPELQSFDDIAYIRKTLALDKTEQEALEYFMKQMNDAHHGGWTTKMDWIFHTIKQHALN
T4 sequence (P27986 whole entry partner): as the sequence (P27986 whole entry partner) above
T2 sequence (O00329 whole entry): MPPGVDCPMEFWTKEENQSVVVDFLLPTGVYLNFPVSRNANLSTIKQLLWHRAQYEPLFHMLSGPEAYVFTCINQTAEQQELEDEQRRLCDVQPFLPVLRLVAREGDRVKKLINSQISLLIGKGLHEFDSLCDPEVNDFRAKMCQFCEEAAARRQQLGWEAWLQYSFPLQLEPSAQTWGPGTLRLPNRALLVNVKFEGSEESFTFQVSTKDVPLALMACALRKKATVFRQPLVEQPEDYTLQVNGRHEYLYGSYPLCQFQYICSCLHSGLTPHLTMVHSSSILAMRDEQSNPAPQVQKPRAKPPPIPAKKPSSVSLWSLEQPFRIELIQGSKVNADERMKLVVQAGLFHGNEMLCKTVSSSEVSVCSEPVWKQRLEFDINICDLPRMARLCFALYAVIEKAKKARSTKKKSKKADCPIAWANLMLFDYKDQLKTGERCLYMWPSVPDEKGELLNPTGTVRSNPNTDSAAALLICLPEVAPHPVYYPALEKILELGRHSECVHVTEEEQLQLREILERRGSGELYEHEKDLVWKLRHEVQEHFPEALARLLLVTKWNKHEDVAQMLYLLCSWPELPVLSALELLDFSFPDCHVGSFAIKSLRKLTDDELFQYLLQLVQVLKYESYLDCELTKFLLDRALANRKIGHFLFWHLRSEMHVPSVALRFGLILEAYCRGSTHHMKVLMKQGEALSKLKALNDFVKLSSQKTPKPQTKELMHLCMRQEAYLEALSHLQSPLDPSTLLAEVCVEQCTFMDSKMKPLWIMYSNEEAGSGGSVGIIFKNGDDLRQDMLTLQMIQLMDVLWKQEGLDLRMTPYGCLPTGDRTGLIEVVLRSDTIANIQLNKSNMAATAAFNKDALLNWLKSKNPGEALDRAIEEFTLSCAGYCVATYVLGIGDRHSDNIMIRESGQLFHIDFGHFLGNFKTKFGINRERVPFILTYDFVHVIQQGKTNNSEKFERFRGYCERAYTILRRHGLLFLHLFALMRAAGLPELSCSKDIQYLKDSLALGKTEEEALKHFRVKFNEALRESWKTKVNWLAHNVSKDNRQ
T2 sequence (P27986 whole entry partner): as the sequence (P27986 whole entry partner) above

Compound | IC50 (PI3 Kgamma (PI3 Kg)) | IC50 (PI3K delta (PI3 Kd); Table 4) | IC50 (PI3K delta (PI3 Kd); Table 6) | IC50 (mTOR; [2]) | IC50 (mTOR; [3]) | Inhibition values (IC50) PI3Ka (PI3Kalpha (PI3Ka)) | IC50 (PI3 Kbeta (PI3 Kb)) | IC50 [1, 4] | IC50 [1, 5] | IC50 (PI3Kalpha (PI3Ka))
CCNC(=O)Nc1ccc(-c2nc3c(c(N4CCOC[C@@H]4C)n2)CN(C(=O)CCN(C)C)CC3)cc1 [Example 92, (S)-1-(4-(6-(3-(dimethylamino)propanoyl)-4-(3-methylmorpholino)-5,6,7,8-tetrahydropyrido[4,3-d]pyrimidin-2-yl)phenyl)-3-ethylurea] | > 10000 nM |  | > 10000 nM |  | 100 to 1000 nM | D (D >10 μM) | > 10000 nM |  | > 10000 nM | 
CCNC(=O)Nc1ccc(-c2nc3c(c(N4CCOCC4)n2)CN(C(C)=O)C3)cc1 [Example 99, 1-(4-(6-acetyl-4-morpholino-6,7-dihydro-5H-pyrrolo[3,4-d]pyrimidin-2-yl)phenyl)-3-ethylurea] | > 10000 nM |  | 1000 to 10000 nM |  | < 100 nM |  | 1000 to 10000 nM |  | > 10000 nM | 1000 to 10000 nM
CCNC(=O)Nc1ccc(-c2nc3c(c(N4CCOC[C@@H]4C)n2)CCN(C)C3)c(C)c1 [Example 109, (S)-1-ethyl-3-(3-methyl-4-(7-methyl-4-(3-methylmorpholino)-5,6,7,8-tetrahydropyrido[3,4-d]pyrimidin-2-yl)phenyl)urea] | > 10000 nM |  | > 10000 nM |  | 100 to 1000 nM | D (D >10 μM) | > 10000 nM |  | > 10000 nM | 
CCOC(=O)N1Cc2nc(-c3ccc(NC(=O)Nc4cccc(O)c4)cc3)nc(N3CCOC[C@@H]3C)c2C1 [Example 111, (S)-ethyl 2-(4-(3-(3-hydroxyphenyl)ureido)phenyl)-4-(3-methylmorpholino)-5H-pyrrolo[3,4-d]pyrimidine-6(7H)-carboxylate] | > 10000 nM |  | > 10000 nM |  | 100 to 1000 nM | D (D >10 μM) | > 10000 nM |  | > 10000 nM | 
C[C@H]1COCCN1c1nc(-c2ccc(NC(=O)NC3CC3)cc2)nc2c1CN(C(=O)CCC(N)=O)C2 [Example 127, (S)-4-(2-(4-(3-cyclopropylureido)phenyl)-4-(3-methylmorpholino)-5H-pyrrolo[3,4-d]pyrimidin-6(7H)-yl)-4-oxobutanamide] | > 10000 nM |  | > 10000 nM |  | < 100 nM |  |  |  |  | 1000 to 10000 nM
C[C@H]1COCCN1c1nc(-c2ccc(NC(=O)NC3CC3)cc2)nc2c1CN(CC1CCN(C(=O)OC(C)(C)C)CC1)C2 [Example 128, (S)-tert-butyl 4-((2-(4-(3-cyclopropylureido)phenyl)-4-(3-methylmorpholino)-5H-pyrrolo[3,4-d]pyrimidin-6(7H)-yl)methyl)piperidine-1-carboxylate] | > 10000 nM |  | > 10000 nM |  | 100 to 1000 nM | D (D >10 μM) |  |  |  | 

Second part, the molecule after the results:

IC50 (PI3 Kgamma (PI3 Kg)) | IC50 (PI3K delta (PI3 Kd); Table 4) | IC50 (PI3K delta (PI3 Kd); Table 6) | IC50 (mTOR; [2]) | IC50 (mTOR; [3]) | Inhibition values (IC50) PI3Ka (PI3Kalpha (PI3Ka)) | IC50 (PI3 Kbeta (PI3 Kb)) | IC50 [1, 4] | IC50 [1, 5] | IC50 (PI3Kalpha (PI3Ka)) | Compound
100 to 1000 nM | 1000 to 10000 nM | 1000 to 10000 nM | < 100 nM | < 100 nM | B (B >0.1 μM < 1 μM) | 1000 to 10000 nM | > 10000 nM | > 10000 nM |  | C[C@H]1COCCN1c1nc(-c2ccc(NC(N)=O)cc2)nc2c1CNC2 [Example 5, (S)-1-(4-(4-(3-methylmorpholino)-6,7-dihydro-5H-pyrrolo[3,4-d]pyrimidin-2-yl)phenyl)urea]
1000 to 10000 nM |  |  | 100 to 1000 nM | 100 to 1000 nM |  |  | > 10000 nM | > 10000 nM |  | C[C@H]1COCCN1c1nc(-c2ccc(NC(=O)NCCN(C)C)cc2)nc2c1CN(C)C2 [Example 54, (S)-1-(2-(dimethylamino)ethyl)-3-(4-(6-methyl-4-(3-methylmorpholino)-6,7-dihydro-5H-pyrrolo[3,4-d]pyrimidin-2-yl)phenyl)urea]
1000 to 10000 nM |  | 100 to 1000 nM |  | < 100 nM | B (B >0.1 μM < 1 μM) | 1000 to 10000 nM |  | > 10000 nM |  | CCOC(=O)N1Cc2nc(-c3ccc(NC(=O)NCCN)cc3)nc(N3CCOC[C@@H]3C)c2C1 [Example 112, (S)-ethyl 2-(4-(3-(2-aminoethyl)ureido)phenyl)-4-(3-methylmorpholino)-5H-pyrrolo[3,4-d]pyrimidine-6(7H)-carboxylate]
1000 to 10000 nM |  | 100 to 1000 nM |  | 100 to 1000 nM | B (B >0.1 μM < 1 μM) | 1000 to 10000 nM |  | > 10000 nM |  | CCOC(=O)N1Cc2nc(-c3ccc(NC(=O)NCC(N)=O)cc3)nc(N3CCOC[C@@H]3C)c2C1 [Example 114, (S)-ethyl 2-(4-(3-(2-amino-2-oxoethyl)ureido)phenyl)-4-(3-methylmorpholino)-5H-pyrrolo[3,4-d]pyrimidine-6(7H)-carboxylate]
